Converted amounts (≈) assume the structure as drawn. Like-named read-outs stand apart in the source and are kept apart here.
How the values were obtained:
[1] = test system: pAKT-S473 in PC-3 cells (TORC2); assay: Cellular p-AKT (ser473) AlphaScreen assay in PC-3 cells (TORC2 activity); assay type: cell-based, human; conditions: for IC50: read-out: pAKT S473 Cell IC50
Experimental: The target product profile for 1 and the next-generation analogs described here was for a dual inhibitor against both TORC1 and TORC2.
FRAP1 (mTOR) recombinant protein and GFP-4E-BP1 were purchased from Invitrogen (Carlsbad, CA, US).
The kinase activity assay was conducted in 50 mM Hepes buffer containing 10 mM MgCl2, 0.01% Brij, 0.2 mM EDTA, 2 mM DTT and 1% DMSO (after compound addition) at pH 7.3.
The IC50 value for each compound was determined in the presence of compound (various concentrations, from 0 to 10 μM) and a fixed amount of ATP (50 μM, final concentration), substrate GFP-4E-BP1 (400 nM, final concentration). The enzymatic reaction was initiated by adding FRAP1 (mTOR) (2 nM, final concentration). The assay was conducted at room temperature (~22 °C). After 30 min, the enzymatic reaction was stopped using Tb-anti-p4E-BP1 (2 nM final concentration, Invitrogen) and EDTA (20 mM final concentration, Sigma) in TR-FRET dilution buffer provided by Invitrogen. All the reagents were dispensed using a Multidrop Combi reagent dispenser (ThermoFisher Scientific, Waltham, […]
The release of product was detected using a BMG PHERAstar plate reader (BMG LABTECH, Ortenberg, Germany) and the Lantha Screen module (337 nm excitation wavelength) and measuring the ratio of fluorescence 520/490 nm (emission wavelengths). Experimental data was fitted using Eq. (1):
Vi and Vo are the rates of the enzyme activity in the presence and in the absence of inhibitor; n is the Hill coefficient; I is the free inhibitor concentration; IC 50 is a measure of potency that is equivalent to a […]
Cellular p-AKT (ser473) assay in PC-3 cells
PC-3 cells (PTEN deleted, human prostate cell line) were maintained in F12K media with 10% heat-inactivated fetal bovine serum (FBS) in 37 °C, 5% CO2 incubator. This method describes the procedure […]
from Perkin Elmer (catalog# TGRAS500). On day 1, 50,000 PC-3 cells were plated in 160 µL complete […]
Plates were placed in 37 °C, 5%
CO2 incubator for 24 h. On day 2, all media was removed and replaced with 160 µL starvation media which is F12K media (no FBS) and 0.1% BSA. Plates are placed in 37 °C, 5% CO2 incubator for 16 h. On day 3, compounds were both solubilized and serially diluted in DMSO and added to a secondary plate containing starvation media. 40 µL of compound/starvation media were added to the 160 µL in cell plate and plates were placed back in the incubator for 1 h. Cells were then activated by adding 22 µL FBS (for a final concentration of 10% FBS) for 10 min in the incubator. Media was removed from the well and cells were lysed in 100 µL SureFire kit lysis buffer and then shake n for 15 min at 900 rpm. AlphaScreen […]
assay was performed according to manufacturer’s instructions. 4 µL of lysate was added to PerkinElmer 96-well Proxiplate then 5 µL of Reaction Buffer plus Activation Buffer. Plates were shaken for 2 h at room temperature. 2 µL of Donor Beads in Dilution Buffer were added to the plate and the plate was shaken for 2 h at room temperature. The plate was read using BMG Labtech PHERAstar using AlphaScreen settings. Each analog was run in duplicate wells and a single IC50 value was calculated in […]

PI3Kα = PI3Kα enzyme selectivity (PI3Kα IC50 over mTOR IC50); assay type: biochemical; conditions: ratio of PI3Kα enzyme IC50 over mTOR enzyme IC50
Rat PK (iv and po) = assay type: in vivo; conditions: for frac. abs.: estimated from %F, Cl and Qh = 70 mL min^–1 kg^–1; for bioavailability: in vivo, 4 mg/kg; for bioavailability / Cl / Vd: iv 1 mpk; for bioavailability / Cmax: po 4 mpk in 0.5% methylcellulose
Description: This was an early indication that the strategy of increasing potency while lowering lipophilicity would allow us to meet our goal of improving prospects for favorable PK and dose.

Thermodynamic solubility = assay type: physicochemical
[2] = test system: A549 lung carcinoma cell line xenograft; assay: Mouse xenograft model with A549 lung carcinoma cell line; assay type: in vivo
Experimental: Based on the improved rat PK for 14c, it was dosed at 2 and 6 mpk along with lead 1 at 30 mpk—in an effort to achieve similar in vivo exposure profiles—in a mouse xenograft model with the lung carcinoma cell line A549 (Figure 4). […] The 6 mpk dose of 14c reduced the tumor volume by more than 50%. Regrowth was included to assess a possible growth lag period, but as expected, tumor regrowth resumed following mTOR inhibitor withdrawal.[22]
All animal studies were conducted in accordance with Takeda California Institutional Animal Care and Use Committee guidelines in a facility accredited by the American Association for Accreditation of Laboratory Animal Care. Female Nu/Nu mice (Balb/c), approximately 28 days of age and weighing 20 to 23 grams were obtained from Harlan Laboratories. Immuno-compromised and/or inbred mice are used extensively for in vivo cancer research for detecting pharmacological capabilities induced by anti-cancer agents and therefore were chosen as the most appropriate animal model for this study. Five million A549 cells/animal (0.2 mL) w/ Matrigel were implanted S.C. into the right flank of Balb/c Nu/Nu mice.
Low passage A549 cells were grown in F12 media and supplied at a concentration of 50 million cells/mL in DPBS. Treatment was initiated when all study animals had small tumors averaging approximately 150-180 mg. Dosing solutions/suspensions were prepared every 5 days. Compound 1 was suspended in 30% Captisol in 0.05 M MSA pH ~1.5. Compound 14c was suspended in 0.5% MC. Dose solutions/suspensions were given orally at a dose volume of 5 mL/kg. […] The general health of the mice was monitored, and mortality was assessed daily. Tumor dimensions were recorded 2 times per week starting one day before the first day of treatment. Toxicity was assessed as net body weight loss and lethality. Tumor weights are calculated using the equation (a x b2)/2, where a and b refer to the larger and smaller dimensions collected at each measurement. Error bars in each plot of % tumor volume change vs. days of treatment were calculated as the standard error of the means. […]

[3] = Homo sapiens, PC-3, PC-3 cell line
[4] = Homo sapiens, p-AKT S473, PC-3 cells, mean of N runs, read-out: Cell pEC50 (converted)
[5] = pH 1.2, read-out: Thermodynamic solubility at pH 1.2
[6] = pH 6.8, read-out: Thermodynamic solubility at pH 6.8

Row | SMILES | IC50 [1, 3] [nM] | EC50 [1, 4] [nM] | IC50 ([1]; PC-3 cell line) [nM] | PI3Ka sel. (PI3Kα) [×] | PI3Kα Sel (PI3Kα; Table 2, unit not given) | frac. abs. (Rat PK (iv and po)) [%] | bioavailability (Rat PK (iv and po)) [%] | Cl (Rat PK (iv and po)) [mL min^–1 kg^–1] | Vd (Rat PK (iv and po)) [L/kg] | Cmax (Rat PK (iv and po)) [nM] | solubility thermodynamic (Thermodynamic solubility; [5]) [µM] | solubility thermodynamic (Thermodynamic solubility; [6]) [µM] | Tumor growth ([2]; 2 mpk po QD 14 days) | Tumor volume reduction ([2]; 6 mpk po QD 14 days) | EC50 ([1]; Homo sapiens, PC-3, Figure 1 profile, read-out: cell EC50) [nM] | PI3Kα Sel (PI3Kα) [x] | Tumor growth ([2]; 30 mpk po QD 14 days)
1 | C[C@@]12COCCN1c1nc(-c3cccc4[nH]ccc34)ncc1N([C@H]1CC[C@H](O)CC1)C2=O [14c] | 10 | 12.6 | 13 | 240 | 240 | 100 | 94 | 7.0 | 1.3 | 1600 | 3960 (≈ 1720 µg/mL) | 6 (≈ 2.6 µg/mL) | fully inhibited tumor growth | more than 50% |  |  | 
2 | CC(F)(F)CN1C(=O)[C@]2(C)COCCN2c2nc(-c3ccc(NC(=O)NC4CC4)cc3)ncc21 [compound 1] | 70 | 70.8 |  |  |  | 22 | 20 | 6.9 | 0.95 | 320 | 340 (≈ 161 µg/mL) | 0.6 (≈ 0.283 µg/mL) |  |  | 70 | 54 | fully inhibited tumor growth

Reference: article PMC10641921, “Optimization of mTOR Inhibitors Using Property-Based Drug Design and Free–Wilson Analysis for Improved In Vivo Efficacy” (ACS Medicinal Chemistry Letters, 2023)
